Measurements taken from PMC3225262, “PeptX: Using Genetic Algorithms to optimize peptides for MHC binding” (BMC Bioinformatics, 2011).
Where no end group is shown, it is not given here.

What follows are sequences tested against HLA-A*02:01 (Homo sapiens, UniProt P04439, D140Y/D185E/D98H/E176V/E277Q/G131W/G231S/I119V/I121R/I166T/I218V/L300P/L318F/N151K/N90K/P208A/P217A/Q86G/Q94H/R138H/R169H/T345S) (assay: experimental peptide/MHC binding assay of the consensus peptides). Conditions: consensus peptides optimized for HLA-A*02:01; values below 0.5 nM are beyond the range of sensitivity of the assay; tested by co-operation partner (J. Sidney); read-out: experimental peptide/MHC binding affinity expressed as IC50.
Source text: Since a validation on the basis of existing public experimental data was not possible we were able to find a co-operation partner who tested our consensus peptides for experimental peptide/MHC binding affinity.
The authors thank J. Sidney for testing the IC50 binding affinities of the consensus peptides.

IC50	Sequence
1.1 nM	FLWEVTPTV [FLWEVTPTV]
< 0.5 nM	YMMEWMWYV [YMMEWMWYV]

Further lines, the sequence ahead of its results:

Sequence	IC50
MLWTMVFTV [MLWTMVFTV]	< 0.5 nM
WWWFFWYVW [WWWFFWYVW]	45 nM
YLAEGLASL [YLAEGLASL]	1.3 nM
